The values below come from paper PMC3884847 (Journal of Medicinal Chemistry, 2013).

The term IC50 denotes the midpoint of a concentration-inhibition curve. Usually solubility stands for how much of the substance goes into solution per volume. Read a low solubility as little dissolved substance.

Values after ≈ are worked out from the molar mass of the structure shown. Values joined by “and” are separate entries in the source; they are usually repeats but may differ in a detail not shown here. Equal values may be shown once. Read-outs that look alike come from different tables or passages of the source.

The subject of data set [1] is T. cruzi (Tulahuen TcVI). As to the kind of experiment: Initial PK/PD efficacy: 10-day once daily oral dosing of T. cruzi infected mice. Type of data set: in vivo, Swiss mice. The settings on record: 20 mg/kg oral once daily for up to 10 days.
For data set [2] the following is noted: human liver microsomes. On the technique in general: Liver microsomes are a subcellular fraction often used to study metabolism.
The subject of data set [3] is T. cruzi (Tulahuen TcVI).
The test system of data set [4] is T. cruzi. The settings on record: twice daily treatment for 30 days, acute and chronic models; cited from earlier work.
Data set [5] relates to T. cruzi. The settings on record: cited from earlier work.
Data set [6] can be described thus: in vitro. The settings on record: rat, L6 IC50 (cytotoxicity), L6 cells.
For data set [7], the system named is T. cruzi (Tulahuen strain (Tc VI) transfected with β-galactosidase), amastigote form. As to the kind of experiment: microbe, parasite or virus in culture. The settings on record: Trypanosoma cruzi.
Data set [8] relates to T. cruzi (Tulahuen TcVI). The settings on record: once daily oral 20 mg/kg for 20 days, cited from earlier work.
The nature of data set [9]: physchem. The settings on record: pH 2.
Setting [10] is: 20 mg/kg oral once daily 20 days, day 8 = first compound dose.
[11] abbreviates: 20 mg/kg oral once daily 20 days, end after three cycles of immunosuppression.
The mark [12] stands for this setting: 20 mg/kg oral once daily 20 days, first day of nontreatment period.
The mark [13] stands for this setting: 20 mg/kg oral once daily 20 days, last day of nontreatment period.
The mark [14] stands for this setting: 20 mg/kg, PCR of blood, spleen, heart, skeletal muscle, colon.
[15] abbreviates: 5 mg/kg oral once daily 20 days.
[16] abbreviates: 10 mg/kg oral once daily 20 days.
Where [17] appears, read: 100 mg/kg oral once daily 20 days.
[18] abbreviates: 20 mg/kg oral once daily 20 days.

As to `O=C(C(c1ccc(Cl)cc1)c1cccnc1)N1CCN(c2ccc(C(F)(F)F)cc2)CC1` (racemic) [(rac)-7, 2-(4-Chlorophenyl)-1-{4-[4-(trifluoromethyl)phenyl]piperazin-1-yl}-2-(pyridin-3-yl)ethanone], the “parasites cleared from blood during 10-day dosing?” value (from here on “parasites cleared”) in data set [1] is on record as “yes”. Moreover, in data set [2] (Table 2), the “predicted human EH” value is on record as 0.50. For the same compound, in [3] (20 mg/kg daily oral), the “cure by PCR analyses of organs and blood” value is listed as “no cures were obtained”. Besides, the “mouse survival after infection, day 8” value in [3] (setting [10]) is recorded as 5 of 5. Besides, in [3] (setting [11]), the “mouse survival after infection, day 58” value is 3 of 5. Also, in [3] (setting [12]), the “mouse survival after infection, day 28” value is reported as 5 of 5. In data set [3] (setting [13]), the “mouse survival after infection, day 37” value is 5 out of 5 and 5 of 5. The “–ve PCR” value in data set [3] (setting [14]) is 0 of 3.

On to `O=C([C@H](c1ccc(Cl)cc1)c1cccnc1)N1CCN(c2ccc(C(F)(F)F)cc2)CC1` [(R)-7, 2-(4-Chlorophenyl)-1-{4-[4-(trifluoromethyl)phenyl]piperazin-1-yl}-2-(pyridin-3-yl)ethanone], for which the “predicted human EH” value in data set [2] (Table 2) is 0.61.

On to `O=C([C@@H](c1ccc(Cl)cc1)c1cccnc1)N1CCN(c2ccc(C(F)(F)F)cc2)CC1` [(S)-7, 2-(4-Chlorophenyl)-1-{4-[4-(trifluoromethyl)phenyl]piperazin-1-yl}-2-(pyridin-3-yl)ethanone], for which the “predicted human EH” value in [2] (Table 2) is listed as 0.53. Also, the “cure by PCR analyses of organs and blood” value in data set [3] (5 mg/kg daily oral) was “cure had not been achieved”. Also, in [3] (setting [15]), the “mouse survival after infection, day 8” value was 4 of 4; the “mouse survival after infection, day 28” value is 4 of 4; the “mouse survival after infection, day 37” value is listed as 4 of 4; the “mouse survival after infection, day 58” value is 3 out of 4 and 3 of 4. In addition, the “–ve PCR” value in data set [3] (5 mg/kg, PCR of blood and tissues) was 0 of 3. For the same compound, in [3] (setting [16]), the “mouse survival after infection, day 8” value is on record as 4 of 4; the “mouse survival after infection, day 28” value is 4 of 4; the “mouse survival after infection, day 37” value is on record as 4 of 4; the “mouse survival after infection, day 58” value is listed as 3 of 4. In addition, in data set [3] (10 mg/kg, PCR of blood and tissues), the “–ve PCR” value was 2 out of the 3 and 2 of 3.

In the case of `O=C(N[C@@H](Cn1ccnc1)c1ccc(Cl)cc1Cl)c1ccc(-c2nnc(-c3ccccc3)o2)cc1` [VNI], in data set [4], the parasitological cure entry is reported as “parasitological cure”.

For `O=C(Cn1ccnc1[N+](=O)[O-])NCc1ccccc1` [benznidazole, reference compound], in [3] (100 mg/kg oral), the “parasites in blood during the immunosuppression phase” value is given as “re-emergence of parasites in blood”. In addition, in data set [3] (setting [17]), the “mouse survival after infection, day 8” value was 5 of 5; the “mouse survival after infection, day 28” value is 4 of 5; the “mouse survival after infection, day 37” value is reported as 4 of 5; the “mouse survival after infection, day 58” value is on record as 0 of 5. Also, the “adult patients experiencing serious adverse reactions” value in data set [5] is reported as “up to 30%”. Besides, the “cure rates, acute stage of the infection” value in data set [5] (patients) is “up to 60%”. For the same compound, in data set [6], the IC50 is more than 100 µM. Further, the 50% inhibitory concentration (IC50) in data set [7] (read-out: Tc IC50) amounted to 1500 nM.

For `N#Cc1ccc(C(O)(c2ccc(C(F)(F)F)cc2)c2cccnc2)cc1` (centres unmarked) [compound 2, 4-(hydroxy(pyridin-3-yl)[4-(trifluoromethyl)phenyl]methyl)benzonitrile], the “parasites cleared” value in [1] is reported as “yes”. Besides, the parasitological cure entry in [8] (three cycles of immunosuppression) was “had not achieved a parasitological cure”. In [7], this compound returned an IC50 of 12 nM.

On to `N#Cc1ccc(C(c2cccnc2)N2CCC(NC(=O)c3c(F)cccc3F)CC2)cc1` (centres unmarked) [compound 4], for which the “parasites cleared” value in [1] is “no”.

On to `Fc1cc(Cl)ccc1C(NC1CCN(c2ccc(C(F)(F)F)cc2)CC1)c1cccnc1` (centres unmarked) [compound 5], for which, in [1], the “parasites cleared” value is “yes”.

Turning to `FC(F)(F)c1ccc(N(c2cccnc2)C2CCN(c3ccc(C(F)(F)F)cn3)CC2)cc1` [compound 6, N-[4-(Trifluoromethyl)phenyl]-N-(1-[5-(trifluoromethyl)pyridin-2-yl]piperidin-4-yl)pyridin-3-amine], the “parasites cleared” value in data set [1] was “yes”. Moreover, in [2] (Table 1), the “predicted human EH” value was 0.68. In addition, in data set [3] (setting [18]), the “mice microscopically parasite free following three cycles of immunosuppression” value is 3 out of 4 and the “mice parasite free at the end of dosing” value was 4 out of 5. Also, the “mouse survival after infection, day 8” value in data set [3] (setting [10]) is 5 of 5. Moreover, the “mouse survival after infection, day 58” value in data set [3] (setting [11]) is given as 3 of 5. In addition, the “mouse survival after infection, day 28” value in [3] (setting [12]) is on record as 4 of 5. The “mouse survival after infection, day 37” value in data set [3] (setting [13]) is 4 of 5. For the same compound, the “–ve PCR” value in data set [3] (setting [14]) is listed as 3 of 3. The parasitological cure entry in data set [3] (lower doses, 5 and 10 mg/kg, data not shown) is “parasitological cure was not observed”.

On to `CC(C)(C)CC(=O)N1CCC(N(c2ccc(Cl)cc2)c2cccnc2)CC1` [compound 16], for which the “predicted human EH” value in data set [2] (Table 1) is reported as 0.91.

Turning to `Cc1ccccc1CN1CCC(N(c2ccc(C(F)(F)F)cc2)c2cccnc2)CC1` [compound 22], in [2] (Table 1), the “predicted human EH” value is on record as 0.87.

As to `N#Cc1ccccc1N1CCC(N(c2ccc(C(F)(F)F)cc2)c2cccnc2)CC1` [compound 25], the “predicted human EH” value in [2] (Table 1) is listed as 0.88.

Take `FC(F)(F)c1ccc(N(c2cccnc2)C2CCN(c3ccc(Cl)cc3)CC2)cc1` [compound 27]: in data set [2] (Table 1), the “predicted human EH” value is 0.65.

On to `N#Cc1ccc(N(c2cccnc2)C2CCN(c3ccc(C(F)(F)F)cc3)CC2)cc1` [compound 31], for which the “predicted human EH” value in data set [2] (Table 1) was 0.69.

On to `CS(=O)(=O)c1ccc(N2CCC(N(c3ccc(C#N)cc3)c3cccnc3)CC2)cc1` [compound 33], for which the “predicted human EH” value in [2] (Table 1) is recorded as 0.47.

Regarding `FC(F)(F)c1ccc(N(c2cncnc2)C2CCN(c3ccc(C(F)(F)F)cn3)CC2)cc1` [compound 34], the “predicted human EH” value in data set [2] (Table 1) is on record as 0.63.

In the case of `N#Cc1ccc(C(C(=O)N2CCN(c3ccc(C(F)(F)F)cc3)CC2)c2cccnc2)cc1` (centres unmarked) [compound 40], in data set [2] (Table 2), the “predicted human EH” value is 0.70.

With `O=C(C(c1ccc(Cl)cc1)c1cccnc1)N1CCN(c2ccc(C(F)(F)F)nc2)CC1` (centres unmarked) [compound 41], in [2] (Table 2), the “predicted human EH” value is listed as 0.77.

Regarding `N#Cc1ccc(C(C(=O)N2CCN(c3ccc(C(F)(F)F)nc3)CC2)c2cccnc2)cc1` (centres unmarked) [compound 42], the “predicted human EH” value in data set [2] (Table 2) is on record as 0.56.

`O=C(C(c1ccc(Cl)cc1)c1cccnc1)N1CCN(c2ccc(C(F)(F)F)cn2)CC1` (centres unmarked) [compound 43]: the “predicted human EH” value in [2] (Table 2) is 0.70. Further, the concentration in solution in [9] (solubility) came to 25 µg/mL (≈ 54.2 µM).

Regarding `N#Cc1ccc(C(C(=O)N2CCN(c3ccc(C(F)(F)F)cn3)CC2)c2cccnc2)cc1` (centres unmarked) [compound 44], the “predicted human EH” value in [2] (Table 2) is recorded as 0.56.

In the case of `CS(=O)(=O)c1ccc(N2CCN(C(=O)C(c3ccc(Cl)cc3)c3cccnc3)CC2)cc1` (centres unmarked) [compound 45], the “predicted human EH” value in data set [2] (Table 2) is given as 0.82.

Turning to `CS(=O)(=O)c1ccc(N2CCN(C(=O)C(c3ccc(C#N)cc3)c3cccnc3)CC2)cc1` (centres unmarked) [compound 46], in [2] (Table 2), the “predicted human EH” value is listed as 0.46.

Consider `N#Cc1ccc(C(c2cccnc2)N2CCC(NC(=O)c3ccccc3)CC2)cc1` (centres unmarked) [compound 47], for which, in [1], the “parasites cleared” value was “no”.

Turning to `N#Cc1cccc(N2CCC(NC(c3cccnc3)c3ccc(Cl)cc3F)CC2)c1` (centres unmarked) [compound 48], the “parasites cleared” value in data set [1] is given as “no”.

`Cc1cc(C(=O)NC2CCN(C(c3ccc(C#N)cc3)c3cccnc3)CC2)n(C)n1` (centres unmarked) [compound 50]: the “parasites cleared” value in [1] is recorded as “no”.

As for `Cc1ncsc1C(=O)N1CCC(NC(c2ccc(C(F)(F)F)cc2)c2cccnc2)CC1` (centres unmarked) [compound 51], in data set [1], the “parasites cleared” value was “no”.

For the compound `N#Cc1ccc(C(O)(c2ccc(C(F)(F)F)cc2)c2cccnc2)c(F)c1` (centres unmarked) [compound 52], the “parasites cleared” value in data set [1] is listed as “yes”. In addition, it took 2 nM to reach half-maximal inhibition in [7] (IC50).

With `CC[C@@H]([C@H](C)O)n1ncn(-c2ccc(N3CCN(c4ccc(OC[C@@H]5CO[C@@](Cn6cncn6)(c6ccc(F)cc6F)C5)cc4)CC3)cc2)c1=O` [posaconazole, reference compound], the “parasites cleared” value in data set [1] is “yes”. Further, in [8] (subchronic mouse model), the mice cured was approximately 60%. Besides, the IC50 in [6] is more than 100 µM; in data set [7] (read-out: Tc IC50), 0.7 nM.
